From US11566007B2, “Ras inhibitors” (Revolution Medicines, Inc., priority 2019, dated 2023)
Read-outs that look alike come from different tables or passages of the source.

How the values were obtained:
NCI-H358 (K-Ras G12C) = test: CellTiter-Glo cell viability assay, NCI-H358; assay type: cell-based, human; conditions: Homo sapiens, NCI-H358, 120 h, NCI-H358, 5-day treatment; class symbols; read-out: Additional H358 Cell Viability assay data (K-Ras G12C, IC50)
Summary of the method: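 Compounds dispensed directly onto seeded K-Ras mutant cells; plates read on day 5 after ~30 min equilibration to room temperature, by CellTiter-Glo luminescence. Signal normalized as (sample/mean DMSO)×100, then fitted to a four-parameter logistic curve.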

K-Ras G12C = K-Ras G12C (Homo sapiens (Human), UniProt P01116+P62937, G12C); test: Ras-Raf (BRAF RBD) disruption / FRET / MOA assay, KRAS G12C; assay type: biochemical; conditions: KRAS G12C; Ras-Raf disruption/FRET/MOA assay; read-out: IC50* KRAS G12C FRET data
Summary of the method: (§1)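 TR-FRET read-out: a drop in ratio relative to DMSO wells marks disruption of the Ras:RAF complex, reported as IC50. Compounds (3-fold series, 10 points, top 30 μM final) incubated 3 h at 25° C before Eu-anti-His 10 nM and APC-anti-GST 50 nM, 1.5 h more.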

K-Ras G13C = K-Ras G13C (Homo sapiens (Human), UniProt P01116+P62937, G13C); test: Ras-Raf (BRAF RBD) disruption / FRET / MOA assay, KRAS G13C; assay type: biochemical; conditions: KRAS G13C; Ras-Raf disruption/FRET/MOA assay; read-out: IC50* KRAS G13C FRET data
Summary of the method: as §1

KRAS G12V = KRAS G12V (Homo sapiens (Human), UniProt P01116+P62937, G12V); test: Ras-Raf (BRAF RBD) disruption / FRET / MOA assay, KRAS G12V; assay type: biochemical; conditions: read-out: IC50* KRAS G12V FRET data
Summary of the method: as §1

KRAS WT = KRAS WT (Homo sapiens (Human), UniProt P01116+P62937); test: Ras-Raf (BRAF RBD) disruption / FRET / MOA assay, KRAS WT; assay type: biochemical; conditions: read-out: IC50* KRAS WT FRET data
Summary of the method: as §1

KRAS G13D = KRAS G13D (Homo sapiens (Human), UniProt P01116+P62937, G13D); test: Ras-Raf (BRAF RBD) disruption / FRET / MOA assay, KRAS G13D; assay type: biochemical
Summary of the method: as §1

KRAS Q61H = KRAS Q61H (Homo sapiens (Human), UniProt P01116+P62937, Q61H); test: Ras-Raf (BRAF RBD) disruption / FRET / MOA assay, KRAS Q61H; assay type: biochemical; conditions: Ras-Raf disruption/FRET/MOA assay; class symbols; read-out: KRAS Q61H FRET data IC50
Summary of the method: (§2)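 Compounds were tested as a 10-point 3-fold dilution series from 30 μM final for their ability to drive ternary complex formation between nucleotide-loaded Ras and cyclophilin A, displacing the BRAF RBD. After 3 h at 25° C., anti-His Eu-W1024 (10 nM) and anti-GST allophycocyanin (50 nM) were added for 1.5 h. A TR-FRET ratio decrease versus DMSO gave IC50.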

NRAS G12C = NRAS G12C (Homo sapiens (Human), UniProt P01111+P62937, G12C); test: Ras-Raf (BRAF RBD) disruption / FRET / MOA assay, NRAS G12C; assay type: biochemical
Summary of the method: as §1

NRAS Q61R = NRAS Q61R (Homo sapiens (Human), UniProt P01111+P62937, Q61R); test: Ras-Raf (BRAF RBD) disruption / FRET / MOA assay, NRAS Q61R; assay type: biochemical; conditions: NRAS Q61R; Ras-Raf disruption/FRET/MOA assay; read-out: IC50* NRAS Q61R FRET data
Summary of the method: as §2

NRAS WT = NRAS WT (Homo sapiens (Human), UniProt P01111+P62937); test: Ras-Raf (BRAF RBD) disruption / FRET / MOA assay, NRAS WT; assay type: biochemical; conditions: read-out: IC50* NRAS WT FRET data
Summary of the method: as §2

[1] = read-out: IC50* KRAS G13D FRET data
[2] = read-out: IC50* NRAS G12C FRET data

Chain of KRAS G12V (P01116-2 other isoform, or with tags, fused parts or gaps G12V): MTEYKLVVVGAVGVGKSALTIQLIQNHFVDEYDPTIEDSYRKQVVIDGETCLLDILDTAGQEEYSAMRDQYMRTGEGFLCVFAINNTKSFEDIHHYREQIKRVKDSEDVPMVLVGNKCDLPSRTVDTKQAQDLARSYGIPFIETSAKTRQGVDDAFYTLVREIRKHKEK
Chain of KRAS G12V (P62937 whole entry): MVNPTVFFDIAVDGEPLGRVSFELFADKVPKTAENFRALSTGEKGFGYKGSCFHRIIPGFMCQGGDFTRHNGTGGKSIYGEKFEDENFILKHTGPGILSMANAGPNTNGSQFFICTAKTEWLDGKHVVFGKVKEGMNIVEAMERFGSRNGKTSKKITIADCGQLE
Chain of KRAS Q61H (P01116-2 other isoform, or with tags, fused parts or gaps Q61H): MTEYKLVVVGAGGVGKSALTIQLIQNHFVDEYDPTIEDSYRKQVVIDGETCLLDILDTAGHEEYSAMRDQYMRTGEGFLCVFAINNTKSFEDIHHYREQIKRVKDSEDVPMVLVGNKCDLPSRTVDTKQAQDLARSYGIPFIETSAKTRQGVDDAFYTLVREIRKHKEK
Chain of KRAS Q61H (P62937 whole entry): as the sequence (P62937 whole entry) above
Chain of K-Ras G13C (P01116-2 other isoform, or with tags, fused parts or gaps G13C): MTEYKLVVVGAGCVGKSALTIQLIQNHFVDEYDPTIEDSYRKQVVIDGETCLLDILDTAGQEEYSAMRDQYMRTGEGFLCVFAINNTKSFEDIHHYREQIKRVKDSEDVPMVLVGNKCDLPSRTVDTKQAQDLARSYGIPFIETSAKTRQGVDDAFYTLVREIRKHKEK
Chain of K-Ras G13C (P62937 whole entry): as the sequence (P62937 whole entry) above
Chain of NRAS WT (P01111 whole entry): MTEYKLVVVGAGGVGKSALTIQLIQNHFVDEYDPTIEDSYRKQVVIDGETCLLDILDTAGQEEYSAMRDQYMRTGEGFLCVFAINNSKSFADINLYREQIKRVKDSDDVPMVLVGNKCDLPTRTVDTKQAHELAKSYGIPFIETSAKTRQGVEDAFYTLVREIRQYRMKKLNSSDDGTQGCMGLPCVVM
Chain of NRAS WT (P62937 whole entry): as the sequence (P62937 whole entry) above
Chain of NRAS Q61R (P01111 whole entry Q61R): as the sequence (P01111 whole entry) above, with Q61R counted along it
Chain of NRAS Q61R (P62937 whole entry): as the sequence (P62937 whole entry) above
Chain of NRAS G12C (P01111 whole entry G12C): as the sequence (P01111 whole entry) above, with G12C counted along it
Chain of NRAS G12C (P62937 whole entry): as the sequence (P62937 whole entry) above
Chain of KRAS G13D (P01116-2 other isoform, or with tags, fused parts or gaps G13D): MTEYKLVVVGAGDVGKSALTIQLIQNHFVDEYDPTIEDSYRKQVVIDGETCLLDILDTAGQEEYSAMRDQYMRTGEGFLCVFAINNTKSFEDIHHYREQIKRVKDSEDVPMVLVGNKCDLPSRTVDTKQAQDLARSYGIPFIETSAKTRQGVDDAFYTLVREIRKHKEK
Chain of KRAS G13D (P62937 whole entry): as the sequence (P62937 whole entry) above
Chain of K-Ras G12C (P01116-2 other isoform, or with tags, fused parts or gaps G12C): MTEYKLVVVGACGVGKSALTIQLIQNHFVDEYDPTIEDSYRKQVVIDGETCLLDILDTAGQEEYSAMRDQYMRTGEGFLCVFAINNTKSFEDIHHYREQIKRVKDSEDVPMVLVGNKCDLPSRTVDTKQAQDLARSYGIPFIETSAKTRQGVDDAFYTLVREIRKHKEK
Chain of K-Ras G12C (P62937 whole entry): as the sequence (P62937 whole entry) above
Chain of KRAS WT (P01116-2 other isoform, or with tags, fused parts or gaps): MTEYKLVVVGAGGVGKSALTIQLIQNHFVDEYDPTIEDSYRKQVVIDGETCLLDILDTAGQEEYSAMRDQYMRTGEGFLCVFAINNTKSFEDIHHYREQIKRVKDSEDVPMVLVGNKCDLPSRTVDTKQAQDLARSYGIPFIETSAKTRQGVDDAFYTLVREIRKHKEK
Chain of KRAS WT (P62937 whole entry): as the sequence (P62937 whole entry) above

Compound	IC50 (NCI-H358 (K-Ras G12C)) [nM]	IC50 (K-Ras G12C) [nM]	IC50 (K-Ras G13C) [nM]	IC50 (KRAS G12V) [nM]	IC50 (KRAS WT) [nM]	IC50 (KRAS G13D; [1]) [nM]	IC50 (KRAS Q61H) [nM]	IC50 (NRAS G12C; [2]) [nM]	IC50 (NRAS Q61R) [nM]	IC50 (NRAS WT) [nM]	IC50 (KRAS G13D; IC50* KRAS G13D FRET data) [nM]	IC50 (NRAS G12C; IC50* NRAS G12C FRET data) [nM]
CCn1c(-c2cccnc2[C@H](C)OC)c2c3cc(ccc31)-c1cccc(c1)C[C@H](NC(=O)[C@@H](CO[C@@H]1CCN(C(=O)C#CC(C)(C)N(C)C)C1)C(C)C)C(=O)N1CCC[C@H](N1)C(=O)OCC(C)(C)C2 (atropisomer, axis not shown) [Example A584]	< 10	10 to 100	1000 to 10000	1000 to 10000	> 10000	> 10000	1000 to 10000	10 to 100	> 10000	1000 to 10000	–	–
CCn1c(-c2cccnc2[C@H](C)OC)c2c3cc(ccc31)-c1cc(CF)cc(c1)C[C@H](NC(=O)[C@@H](COC1CN(C(=O)C#CC(C)(C)N(C)C)C1)C(C)C)C(=O)N1CCC[C@H](N1)C(=O)OCC(C)(C)C2 (atropisomer, axis not shown) [Example A587]	< 10	10 to 100	> 10000	> 10000	> 10000	> 10000	> 10000	10 to 100	> 10000	> 10000	–	–
CO[C@@H](C)c1ncccc1-c1c2c3cc(ccc3n1CC(F)(F)F)-c1cc(CF)cc(c1)C[C@H](NC(=O)[C@@H](COC1CN(C(=O)C#CC(C)(C)N(C)C)C1)C(C)C)C(=O)N1CCC[C@H](N1)C(=O)OCC(C)(C)C2 (atropisomer, axis not shown) [Example A589]	< 10	10 to 100	1000 to 10000	> 10000	1000 to 10000	> 10000	1000 to 10000	10 to 100	> 10000	1000 to 10000	–	–
CO[C@@H](C)c1ncccc1-c1c2c3cc(ccc3n1CC(F)(F)F)-c1nc(ns1)C[C@H](NC(=O)[C@@H](COC1CN(C(=O)C#CC(C)(C)N(C)C)C1)C(C)C)C(=O)N1CCC[C@H](N1)C(=O)OCC(C)(C)C2 (atropisomer, axis not shown) [Example A590, (2R)-2-(((1-(4-(dimethylamino)-4-methylpent-2-ynoyl)azetidin-3-yl)oxy)methyl)-N-((6^3S,4S,Z)-1^2-(2-((S)-1-methoxyethyl)pyridin-3-yl)-10,10-dimethyl-5,7-dioxo-1^1-(2,2,2-trifluoroethyl)-6^1,6^2,6^3,6^4,6^5,6^6-hexahydro-1^1H-8-oxa-2(5,3)-thiadiazola-1(5,3)-indola-6(1,3)-pyridazinacycloundecaphane-4-yl)-3-methylbutanamide]	< 10	10 to 100	1000 to 10000	1000 to 10000	1000 to 10000	> 10000	1000 to 10000	10 to 100	> 10000	1000 to 10000	–	–
C=CC(=O)N1CCO[C@@]2(CCN(C(=O)N(C)[C@H](C(=O)N[C@H]3Cc4nc(cs4)-c4ccc5c(c4)c(c(-c4cccnc4[C@H](C)OC)n5CC(F)(F)F)CC(C)(C)COC(=O)[C@@H]4CCCN(N4)C3=O)C(C)C)C2)C1 (atropisomer, axis not shown) [Example A594]	< 10	10 to 100	10 to 100	100 to 1000	10 to 100	–	10 to 100	–	10 to 100	10 to 100	100 to 1000	10 to 100
C=CC(=O)N1CCO[C@H]2CN(C(=O)N(C)[C@H](C(=O)N[C@H]3Cc4cccc(n4)-c4ccc5c(c4)c(c(-c4cccnc4[C@H](C)OC)n5CC(F)(F)F)CC(C)(C)COC(=O)[C@@H]4CCCN(N4)C3=O)C(C)C)C[C@H]21 (atropisomer, axis not shown) [Example A595]	< 10	10 to 100	10 to 100	1000 to 10000	100 to 1000	1000 to 10000	100 to 1000	10 to 100	100 to 1000	100 to 1000	–	–
C=CC(=O)N1CCO[C@H]2CN(C(=O)N(C)[C@H](C(=O)N[C@H]3Cc4cccc(n4)-c4ccc5c(c4)c(c(-c4cccnc4[C@H](C)OC)n5CC)CC(C)(C)COC(=O)[C@@H]4CCCN(N4)C3=O)C(C)C)C[C@H]21 (atropisomer, axis not shown) [Example A597]	< 10	10 to 100	10 to 100	1000 to 10000	1000 to 10000	1000 to 10000	100 to 1000	10 to 100	100 to 1000	1000 to 10000	–	–
C=CC(=O)N1CCO[C@H]2CN(C(=O)N(C)[C@H](C(=O)N[C@H]3Cc4cccc(c4)-c4ccc5c(c4)c(c(-c4cccnc4[C@H](C)OC)n5CC)CC(C)(C)COC(=O)[C@@H]4CCCN(N4)C3=O)C(C)C)C[C@H]21 (atropisomer, axis not shown) [Example A610]	< 10	10 to 100	10 to 100	1000 to 10000	100 to 1000	1000 to 10000	100 to 1000	10 to 100	100 to 1000	100 to 1000	–	–
C=CC(=O)N1CC2(CCN2C(=O)N(C)[C@H](C(=O)N[C@H]2Cc3nc(n(C)n3)-c3ccc4c(c3)c(c(-c3cccnc3[C@H](C)OC)n4CC)CC(C)(C)COC(=O)[C@@H]3CCCN(N3)C2=O)C(C)C)C1 (atropisomer, axis not shown) [Example A612]	100 to 1000	10 to 100	100 to 1000	100 to 1000	100 to 1000	100 to 1000	10 to 100	< 10	10 to 100	10 to 100	–	–
CCn1c(-c2cccnc2[C@H](C)OC)c2c3cc(ccc31)N1CCC[C@@H](C[C@H](NC(=O)[C@H](C(C)C)N(C)C(=O)C3(F)CCN(C(=O)C#CC(C)(C)N(C)C)CC3)C(=O)N3CCC[C@H](N3)C(=O)OCC(C)(C)C2)C1 (atropisomer, axis not shown) [Example A615]	< 10	10 to 100	> 10000	> 10000	> 10000	> 10000	> 10000	10 to 100	> 10000	> 10000	–	–
C=CC(=O)N(C)CCC1CCN(C(=O)N(C)[C@H](C(=O)N[C@H]2Cc3nc(cs3)-c3ccc4c(c3)c(c(-c3cccnc3[C@H](C)OC)n4CC)CC(C)(C)COC(=O)[C@@H]3CCCN(N3)C2=O)C(C)C)CC1 (atropisomer, axis not shown) [Example A621]	< 10	10 to 100	10 to 100	10 to 100	10 to 100	100 to 1000	< 10	10 to 100	10 to 100	10 to 100	–	–
